In general, Ki refers to a measure of affinity in units of concentration, obtained from inhibition or displacement.

From US9593110B2, “Neprilysin inhibitors” (Theravence Biopharma R&D IP, LLC, priority 2014, dated 2017) come the findings set out here.

SMILES strings stand for the structures.

This experiment addresses human NEP (Homo sapiens (Human), UniProt P08473). Kind of experiment: In vitro enzyme inhibition assay at human NEP. The note with it: recombinant human NEP, fluorogenic peptide substrate, 37° C.; for Ki: pKi.

Chain of human NEP (P08473 52-750): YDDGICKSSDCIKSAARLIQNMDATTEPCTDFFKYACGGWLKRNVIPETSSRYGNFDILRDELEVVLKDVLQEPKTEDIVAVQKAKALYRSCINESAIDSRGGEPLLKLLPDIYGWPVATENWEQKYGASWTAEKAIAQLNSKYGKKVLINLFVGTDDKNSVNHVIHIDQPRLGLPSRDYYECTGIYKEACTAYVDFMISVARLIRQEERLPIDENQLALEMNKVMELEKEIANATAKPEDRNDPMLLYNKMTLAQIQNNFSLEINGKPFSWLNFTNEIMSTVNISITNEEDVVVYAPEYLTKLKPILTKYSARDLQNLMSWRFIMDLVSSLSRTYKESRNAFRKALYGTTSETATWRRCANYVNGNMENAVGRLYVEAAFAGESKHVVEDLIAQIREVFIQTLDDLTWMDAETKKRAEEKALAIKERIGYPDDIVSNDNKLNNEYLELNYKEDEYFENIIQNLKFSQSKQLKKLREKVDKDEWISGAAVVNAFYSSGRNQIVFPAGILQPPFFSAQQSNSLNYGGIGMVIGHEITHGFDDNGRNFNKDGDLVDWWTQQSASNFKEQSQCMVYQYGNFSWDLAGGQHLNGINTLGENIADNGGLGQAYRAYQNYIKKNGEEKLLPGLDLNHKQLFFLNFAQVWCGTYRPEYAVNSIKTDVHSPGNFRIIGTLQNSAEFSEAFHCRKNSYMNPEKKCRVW

Consider `O=C(N[C@H](Cc1ccc(-c2cc(Cl)ccc2F)cc1)C[C@@H](CNCCO)C(=O)O)c1cnn[nH]1` (single isomer, unassigned) [Example 48a], for which the Ki is no more than 1 nM.
Still for that read-out and setting: as for `O=C(N[C@H](Cc1ccc(-c2cc(Cl)ccc2F)cc1)C[C@@H](CNCCO)C(=O)O)c1cnn[nH]1` (single isomer, unassigned) [Example 48b], the figure is 1.26 to 3.16 nM; as for `COCCNC[C@H](C[C@@H](Cc1ccc(-c2cc(Cl)ccc2F)cc1)NC(=O)c1cnn[nH]1)C(=O)O` (single isomer, unassigned) [Example 49a], no more than 1 nM.
Same read-out and setting: in the case of `Cc1cc(C(=O)NC(Cc2ccc(-c3cc(Cl)ccc3F)cc2)C[C@@H](CC#N)C(=O)O)sn1` (single isomer, unassigned) [Example 52-2] it was 3.16 to 10 nM; in that of `O=C(N[C@H](Cc1ccc(-c2cc(Cl)ccc2F)cc1)CC(C(=O)O)c1cccnc1)c1cnn[nH]1` (single isomer, unassigned) [Example 77a], 3.16 to 10 nM.
The same measure, in the same setting: as for `O=C(N[C@H](Cc1ccc(-c2ccccc2)cc1)CC(C(=O)O)C1CCOCC1)c1cnn[nH]1` (stereo in doubt) [Example 58, (S)-5-Biphenyl-4-yl-2-(tetrahydropyran-4-yl)-4-[(3H-[1,2,3]triazole-4-carbonyl)amino]pentanoic Acid], the figure is 3.16 to 10 nM; as for `O=C(N[C@H](Cc1ccc(-c2cc(Cl)ccc2F)cc1)CC(C(=O)O)C1CCNCC1)c1cnn[nH]1` (stereo in doubt) [Example 59, (S)-5-(5′-Chloro-2′-fluorobiphenyl-4-yl)-2-piperidin-4-yl-4-[(3H-[1,2,3]triazole-4-carbonyl)amino]pentanoic Acid], no more than 1 nM; as for `CC(=O)N1CCC(C(C[C@@H](Cc2ccc(-c3ccccc3)cc2)NC(=O)c2cnn[nH]2)C(=O)O)CC1` (stereo in doubt) [Example 60, (S)-2-(1-Acetylpiperidin-4-yl)-5-biphenyl-4-yl-4-[(3H-[1,2,3]triazole-4-carbonyl)amino]pentanoic Acid], 3.16 to 10 nM.
Turning to `O=C(N[C@H](Cc1ccc(-c2cc(Cl)ccc2F)cc1)CC(C(=O)O)c1ccccn1)c1cnn[nH]1` (stereo in doubt) [Example 76, (S)-5-(5′-Chloro-2′-fluorobiphenyl-4-yl)-2-pyridin-2-yl-4-[(3H-[1,2,3]triazole-4-carbonyl)amino]pentanoic Acid], the Ki fell in the range of 12.6 to 31.6 nM.
Still for that read-out and setting: in the case of `O=C(N[C@H](Cc1ccc(-c2cc(Cl)ccc2F)cc1)CC(C(=O)O)c1cccs1)c1cnn[nH]1` (stereo in doubt) [Example 78, (S)-5-(5′-Chloro-2′-fluorobiphenyl-4-yl)-2-thiophen-2-yl-4-[(3H-[1,2,3]triazole-4-carbonyl)amino]pentanoic Acid] it was 1.26 to 3.16 nM; in that of `O=C(N[C@H](Cc1ccc(-c2cc(Cl)ccc2F)cc1)CC(C(=O)O)c1ccsc1)c1cnn[nH]1` (stereo in doubt) [Example 79, (S)-5-(5′-Chloro-2′-fluorobiphenyl-4-yl)-2-thiophen-3-yl-4-[(3H-[1,2,3]triazole-4-carbonyl)amino]pentanoic Acid], 1.26 to 3.16 nM.
Same read-out and setting: in the case of `COC[C@H](C[C@@H](Cc1ccc(-c2cc(Cl)ccc2F)cc1)NC(=O)c1[nH]nc(C2CC2)c1F)C(=O)O` [Example 2-3, (2S,4S)-5-(5′-Chloro-2′-fluorobiphenyl-4-yl)-4-[(5-cyclopropyl-4-fluoro-2H-pyrazole-3-carbonyl)amino]-2-methoxymethylpentanoic acid] it was 1.26 to 3.16 nM.
In the case of `COC[C@H](C[C@@H](Cc1ccc(-c2cc(Cl)ccc2F)cc1)NC(=O)c1cc(C(C)=O)n[nH]1)C(=O)O` [Example 2-4, (2S,4S)-4-[(5-Acetyl-2H-pyrazole-3-carbonyl)-amino]-5-(5′-chloro-2′-fluorobiphenyl-4-yl)-2-methoxymethylpentanoic acid], the pKi result is “≧9.0”.
On to `COC[C@H](C[C@@H](Cc1ccc(-c2cc(Cl)ccc2F)cc1)NC(=O)c1cc(O)no1)C(=O)O` [Example 2-5, (2S,4S)-5-(5′-Chloro-2′-fluorobiphenyl-4-yl)-4-[(3-hydroxyisoxazole-5-carbonyl)-amino]-2-methoxymethylpentanoic acid], for which the pKi entry is on record as “≧9.0”.
Still for that read-out and setting: in the case of `COC[C@H](C[C@@H](Cc1ccc(-c2cc(Cl)ccc2F)cc1)NC(=O)c1ncco1)C(=O)O` [Example 2-7, (2S,4S)-5-(5′-Chloro-2′-fluorobiphenyl-4-yl)-2-methoxymethyl-4-[(oxazole-2-carbonyl)amino]pentanoic acid] it was “≧9.0”.
Turning to `COC[C@H](C[C@@H](Cc1ccc(-c2cc(Cl)ccc2F)cc1)NC(=O)c1c[nH]c(=O)o1)C(=O)O` [Example 2-10, (2S,4S)-5-(5′-Chloro-2′-fluorobiphenyl-4-yl)-2-methoxymethyl-4-[(2-oxo-2,3-dihydro-oxazole-5-carbonyl)amino]pentanoic acid], the inhibition constant (Ki) fell in the range of 1.26 to 3.16 nM.
Turning to `COC[C@H](C[C@@H](Cc1ccc(-c2cc(Cl)ccc2F)cc1)NC(=O)c1noc(=O)[nH]1)C(=O)O` [Example 2-11, (2S,4S)-5-(5′-Chloro-2′-fluorobiphenyl-4-yl)-2-methoxymethyl-4-[(5-oxo-4,5-dihydro-[1,2,4]oxadiazole-3-carbonyl)amino]pentanoic acid], the pKi entry is “≧9.0”.
On to `COC[C@H](C[C@@H](Cc1ccc(-c2cc(Cl)ccc2F)cc1)NC(=O)c1ccc(Cl)cn1)C(=O)O` [Example 2-12, (2S,4S)-5-(5′-Chloro-2′-fluorobiphenyl-4-yl)-4-[(5-chloro-pyridine-2-carbonyl)-amino]-2-methoxymethylpentanoic acid], for which the pKi result is “≧9.0”.
With `COC[C@H](C[C@@H](Cc1ccc(-c2cc(Cl)ccc2F)cc1)NC(=O)c1ccc(C(F)(F)F)cn1)C(=O)O` [Example 2-14, (2S,4S)-5-(5′-Chloro-2′-fluorobiphenyl-4-yl)-2-methoxymethyl-4-[(5-trifluoromethylpyridine-2-carbonyl)amino]pentanoic acid], the pKi entry is on record as “≧9.0”.
With `COC[C@H](C[C@@H](Cc1ccc(-c2cccc(Cl)c2)cc1)NC(=O)c1n[nH]c(C(F)(F)F)n1)C(=O)O` [Example 4-1, (2S,4S)-5-(3′-Chlorobiphenyl-4-yl)-2-methoxymethyl-4-[(5-trifluoromethyl-1H-[1,2,4]triazole-3-carbonyl)amino]pentanoic acid], the pKi entry is reported as “≧9.0”.
Same read-out and setting: as for `COC[C@H](C[C@@H](Cc1ccc(-c2cccc(Cl)c2)cc1)NC(=O)c1cc(O)no1)C(=O)O` [Example 4-2, (2S,4S)-5-(3′-Chlorobiphenyl-4-yl)-4-[(3-hydroxy-isoxazole-5-carbonyl)amino]-2-methoxymethylpentanoic acid], the entry is “≧9.0”; as for `COC[C@H](C[C@@H](Cc1ccc(-c2cccc(Cl)c2)cc1)NC(=O)c1noc(=O)[nH]1)C(=O)O` [Example 4-3, (2S,4S)-5-(3′-Chlorobiphenyl-4-yl)-2-methoxymethyl-4-[(5-oxo-4,5-dihydro-[1,2,4]oxadiazole-3-carbonyl)amino]pentanoic acid], “≧9.0”.
On the same count and under the same terms, in the case of `CCOC[C@H](C[C@@H](Cc1ccc(-c2cc(Cl)ccc2F)cc1)NC(=O)c1n[nH]c(C(F)(F)F)n1)C(=O)O` [Example 6, (2S,4S)-5-(5′-Chloro-2′-fluorobiphenyl-4-yl)-2-ethoxymethyl-4-[(5-trifluoromethyl-1H-[1,2,4]triazole-3-carbonyl)amino]pentanoic Acid] it was “≧9.0”; in that of `CCOC[C@H](C[C@@H](Cc1ccc(-c2cc(Cl)ccc2F)cc1)NC(=O)c1cc(C(C)=O)n[nH]1)C(=O)O` [Example 7-3, (2S,4S)-4-[(5-Acetyl-2H-pyrazole-3-carbonyl)-amino]-5-(5′-chloro-2′-fluorobiphenyl-4-yl)-2-ethoxymethylpentanoic acid], “≧9.0”.
The same measure, in the same setting: as for `CCOC[C@H](C[C@@H](Cc1ccc(-c2cc(Cl)ccc2F)cc1)NC(=O)c1cc(CC)no1)C(=O)O` [Example 7-5, (2S,4S)-5-(5′-Chloro-2′-fluorobiphenyl-4-yl)-2-ethoxymethyl-4-[(3-ethylisoxazole-5-carbonyl)amino]pentanoic acid], the entry is “≧9.0”; as for `CCOC[C@H](C[C@@H](Cc1ccc(-c2cc(Cl)ccc2F)cc1)NC(=O)c1ncco1)C(=O)O` [Example 7-6, (2S,4S)-5-(5′-Chloro-2′-fluorobiphenyl-4-yl)-2-ethoxymethyl-4-[(oxazole-2-carbonyl)amino]pentanoic acid], “≧9.0”.
On to `CCOC[C@H](C[C@@H](Cc1ccc(-c2cc(Cl)ccc2F)cc1)NC(=O)c1cocn1)C(=O)O` [Example 7-7, (2S,4S)-5-(5′-Chloro-2′-fluorobiphenyl-4-yl)-2-ethoxymethyl-4-[(oxazole-4-carbonyl)amino]pentanoic acid], for which the Ki was 1.26 to 3.16 nM.
In the case of `CCOC[C@H](C[C@@H](Cc1ccc(-c2cc(Cl)ccc2F)cc1)NC(=O)c1coc(C2CC2)n1)C(=O)O` [Example 7-8, (2S,4S)-5-(5′-Chloro-2′-fluorobiphenyl-4-yl)-4-[(2-cyclopropyloxazole-4-carbonyl)amino]-2-ethoxymethylpentanoic acid], the inhibition constant (Ki) is 1.26 to 3.16 nM.
With `CCOC[C@H](C[C@@H](Cc1ccc(-c2cc(Cl)ccc2F)cc1)NC(=O)c1c[nH]c(=O)o1)C(=O)O` [Example 7-9, (2S,4S)-5-(5′-Chloro-2′-fluorobiphenyl-4-yl)-2-ethoxymethyl-4-[(2-oxo-2,3-dihydro-oxazole-5-carbonyl)amino]pentanoic acid], the pKi entry is “≧9.0”.
For the compound `CCOC[C@H](C[C@@H](Cc1ccc(-c2cc(Cl)ccc2F)cc1)NC(=O)c1noc(=O)[nH]1)C(=O)O` [Example 7-10, (2S,4S)-5-(5′-Chloro-2′-fluorobiphenyl-4-yl)-2-ethoxymethyl-4-[(5-oxo-4,5-dihydro-[1,2,4]oxadiazole-3-carbonyl)amino]pentanoic acid], the pKi result is recorded as “≧9.0”.
The same measure, in the same setting: in the case of `CCOC[C@H](C[C@@H](Cc1ccc(-c2cc(Cl)ccc2F)cc1)NC(=O)c1ncccn1)C(=O)O` [Example 7-11, (2S,4S)-5-(5′-Chloro-2′-fluorobiphenyl-4-yl)-2-ethoxymethyl-4-[(pyrimidine-2-carbonyl)amino]pentanoic acid] it was “≧9.0”.
